Measured values from US20130210061A1, “Method of Screening Damp-Dry Malodor Inhibitor and Method of Evaluating Damp-Dry Malodor Inhibitor” (KAO CORPORATION, priority 2010, published 2013).

Assays:
Assay in all cases: Example 1: quantification of 4M3H on cotton fabric with 14-methylhexadecanoic acid
[1] = tested on: M. osloensis NCIMB10693; type: cell-based, Moraxella osloensis; conditions: M. osloensis NCIMB10693, cotton fabric with 14-methylhexadecanoic acid, 37° C., 24 hours, vs sterilized water
Procedure: (§1) 10 mL of methanol was added to the towel that had been left to stand still for 24 hours, and 1 mL of the methanol was mixed with 1 mL of ADAM (9-anthrydiazomethanene, manufactured by Funakoshi Corp., 0.1 w/v %). The mixture was left to stand for 60 minutes at room temperature, and thus derivatization was carried out.
(§2) Thereafter, 10 μL of the solution was analyzed by using LC-FL (liquid chromatography apparatus: HITACHI ELITE LaChrom (trade name, manufactured by Hitachi, Ltd.), column: Lichrosphere 100 RP-8(e) (trade name, manufactured by Agilent Technologies, Inc., 5 μm×125 mm×4 mmφ), column temperature: 40° C., eluent a mixed solution of acetonitrile/water=7/3 (volume ratio), flow rate: 1.0 mL/min, detector: excitation wavelength (365 nm), measurement wavelength (412 nm)), and thereby quantification of 4M3H thus produced was carried out. In regard to the amount of production of 4M3H, a sample which produced 4M3H in an amount of more than 1 μg was rated as “[…]”; a sample which produced 4M3H in an amount of more than 0.1 μg and 1 μg or less was rated as “∘”; a sample which produced 4M3H in an amount of more than 0 μg and 0.1 μg or less was rated as “Δ”; and a sample in which no 4M3H was detected was rated as “x”.
(§3) One platinum loop of each of Moraxella osloensis NCIMB10693, Moraxella sp. 4-1, Psychrobacter pacificensis NBRC103191, Psychrobacter glacincola NCIMB101053, Pseudomonas alcaligenes No. 41, Acinetobacter calcoaceticus HH2BD-49, Saccaromyces cerevisiae NBRC1661, Rhodotorula mucilaginosa NBRC0909 and Rhodotorula slooffiae 13c was inoculated into 5 mL of a SCD liquid medium (manufactured by Nihon Pharmaceutical Co., Ltd.), and the microbial cells were subjected to shaking culture (160 rpm) at 35° C. for 24 hours. The microbial cells obtained after culture were centrifuged (8000×g, 10 minutes), the supernatant was removed, and then the microbial cells were suspended in 5 mL of physiological saline. The suspension was centrifuged again (8000×g, 10 minutes), subsequently the supernatant was removed, and a microbial suspension was prepared by using physiological saline such that the OD600 would be 0.1.
(§4) Furthermore, 0.1 mL each of 10-ppm or 100-ppm aqueous solutions of the compounds shown in the following Table 6 was applied on the fabric described above. As a control, a fabric on which sterilized water was applied instead of the compounds described below was also prepared.
(§5) On a plain-woven cotton fabric prepared as described above, 0.1 mL each of the various microbial suspensions was inoculated, and the samples were left to stand still under humidified conditions at 37° C. for 24 hours and were subjected to an evaluation such as described below.
(§6) Quantification of 4M3H was carried out by the same method as that used in Test Example 3, and by taking as a reference the 4M3H production amount of a sample on which sterilized water was applied as a test substance, the 4M3H production amounts in the case of applying other test substances were evaluated on the basis of the following criteria. • A: (4M3H production amount in the case of applying a test substance)<( 1/100 of the 4M3H production amount in the case of applying sterilized water) • B: ( 1/100 of the 4M3H production amount in the case of applying sterilized water)≦(4M3H production amount in the case of applying a test substance)<( 1/10 of the 4M3H production amount in the case of applying sterilized water) • C: ( 1/10 of the 4M3H production amount in the case of applying sterilized water)≦(4M3H production amount in the case of applying a test substance)<(4M3H production amount in the case of applying sterilized water) • D: (4M3H production amount in the case of applying sterilized water)≦(4M3H production amount in the case of applying a test substance)

[2] = tested on: Moraxella sp. 4-1; type: cell-based; conditions: 37° C., 24 hours, vs sterilized water
Procedure: as §1, §2, §3, §4, §5, §6

[3] = tested on: P. pacificensis NBRC103191; type: cell-based, Psychrobacter pacificensis; conditions: 37° C., 24 hours, vs sterilized water
Procedure: as §1, §2, §3, §4, §5, §6

[4] = tested on: P. glacincola NBRC101053; type: cell-based, Psychrobacter glacincola; conditions: 37° C., 24 hours, vs sterilized water
Procedure: as §1, §2, §3, §4, §5, §6

[5] = tested on: P. alcaligenes No. 41; type: cell-based, Pseudomonas alcaligenes; conditions: 37° C., 24 hours, vs sterilized water
Procedure: as §1, §2, §3, §4, §5, §6

[6] = tested on: A. calcoaceticus HH2BD-49; type: cell-based, Acinetobacter calcoaceticus; conditions: 37° C., 24 hours, vs sterilized water
Procedure: as §1, §2, §3, §4, §5, §6

[7] = tested on: S. cerevisiae NBRC1661; type: cell-based, Saccaromyces cerevisiae; conditions: 37° C., 24 hours, vs sterilized water
Procedure: as §1, §2, §3, §4, §5, §6

[8] = tested on: R. muculaginosa NBRC0909; type: cell-based, Rhodotorula mucilaginosa; conditions: 37° C., 24 hours, vs sterilized water
Procedure: as §1, §2, §3, §4, §5, §6

[9] = tested on: R. slooffiae 13c; type: cell-based, Rhodotorula slooffiae; conditions: 37° C., 24 hours, vs sterilized water
Procedure: as §1, §2, §3, §4, §5, §6

[10] = Faucicola osloensis, 100 ppm test substance, read-out: Production amount of 4M3H

Molecule | activity at 100 ppm [1, 10] [%] | Production amount of 4M3H ([2]; 100 ppm test substance) | Production amount of 4M3H ([3]; 100 ppm test substance) | Production amount of 4M3H ([4]; 100 ppm test substance) | Production amount of 4M3H ([5]; 100 ppm test substance) | Production amount of 4M3H ([6]; 100 ppm test substance) | Production amount of 4M3H ([7]; 100 ppm test substance) | Production amount of 4M3H ([8]; 100 ppm test substance) | Production amount of 4M3H ([9]; 100 ppm test substance) | activity at 10 ppm ([1]; Faucicola osloensis, 10 ppm test substance, read-out: Production amount of 4M3H) [%] | Production amount of 4M3H ([2]; 10 ppm test substance) | Production amount of 4M3H ([3]; 10 ppm test substance) | Production amount of 4M3H ([4]; 10 ppm test substance) | Production amount of 4M3H ([5]; 10 ppm test substance) | Production amount of 4M3H ([6]; 10 ppm test substance) | Production amount of 4M3H ([7]; 10 ppm test substance) | Production amount of 4M3H ([8]; 10 ppm test substance) | Production amount of 4M3H ([9]; 10 ppm test substance) | Production amount of 4M3H ([1]; 100 ppm test substance)
CCCCCCCC/C=C\CCCCCCCC(=O)O [Oleic acid] | 1 to 10 | B (( 1/100 of the 4M3H production amount in the case of applying sterilized water)≦(4M3H production amount in the case of applying a test substance)<( 1/10 of the 4M3H production amount in the case of applying sterilized water)) | C (( 1/10 of the 4M3H production amount in the case of applying sterilized water)≦(4M3H production amount in the case of applying a test substance)<(4M3H production amount in the case of applying sterilized water)) | A ((4M3H production amount in the case of applying a test substance)<( 1/100 of the 4M3H production amount in the case of applying sterilized water)) | C (( 1/10 of the 4M3H production amount in the case of applying sterilized water)≦(4M3H production amount in the case of applying a test substance)<(4M3H production amount in the case of applying sterilized water)) | C (( 1/10 of the 4M3H production amount in the case of applying sterilized water)≦(4M3H production amount in the case of applying a test substance)<(4M3H production amount in the case of applying sterilized water)) | B (( 1/100 of the 4M3H production amount in the case of applying sterilized water)≦(4M3H production amount in the case of applying a test substance)<( 1/10 of the 4M3H production amount in the case of applying sterilized water)) | B (( 1/100 of the 4M3H production amount in the case of applying sterilized water)≦(4M3H production amount in the case of applying a test substance)<( 1/10 of the 4M3H production amount in the case of applying sterilized water)) | C (( 1/10 of the 4M3H production amount in the case of applying sterilized water)≦(4M3H production amount in the case of applying a test substance)<(4M3H production amount in the case of applying sterilized water)) |  |  |  |  |  |  |  |  |  | 
Cc1ccc(C(C)C)c(O)c1 [Thymol] | < 1 | B (( 1/100 of the 4M3H production amount in the case of applying sterilized water)≦(4M3H production amount in the case of applying a test substance)<( 1/10 of the 4M3H production amount in the case of applying sterilized water)) | B (( 1/100 of the 4M3H production amount in the case of applying sterilized water)≦(4M3H production amount in the case of applying a test substance)<( 1/10 of the 4M3H production amount in the case of applying sterilized water)) | B (( 1/100 of the 4M3H production amount in the case of applying sterilized water)≦(4M3H production amount in the case of applying a test substance)<( 1/10 of the 4M3H production amount in the case of applying sterilized water)) | C (( 1/10 of the 4M3H production amount in the case of applying sterilized water)≦(4M3H production amount in the case of applying a test substance)<(4M3H production amount in the case of applying sterilized water)) | C (( 1/10 of the 4M3H production amount in the case of applying sterilized water)≦(4M3H production amount in the case of applying a test substance)<(4M3H production amount in the case of applying sterilized water)) | D ((4M3H production amount in the case of applying sterilized water)≦(4M3H production amount in the case of applying a test substance)) | A ((4M3H production amount in the case of applying a test substance)<( 1/100 of the 4M3H production amount in the case of applying sterilized water)) | C (( 1/10 of the 4M3H production amount in the case of applying sterilized water)≦(4M3H production amount in the case of applying a test substance)<(4M3H production amount in the case of applying sterilized water)) | 1 to 10 | C (( 1/10 of the 4M3H production amount in the case of applying sterilized water)≦(4M3H production amount in the case of applying a test substance)<(4M3H production amount in the case of applying sterilized water)) | D ((4M3H production amount in the case of applying sterilized water)≦(4M3H production amount in the case of applying a test substance)) | C (( 1/10 of the 4M3H production amount in the case of applying sterilized water)≦(4M3H production amount in the case of applying a test substance)<(4M3H production amount in the case of applying sterilized water)) | D ((4M3H production amount in the case of applying sterilized water)≦(4M3H production amount in the case of applying a test substance)) | D ((4M3H production amount in the case of applying sterilized water)≦(4M3H production amount in the case of applying a test substance)) | C (( 1/10 of the 4M3H production amount in the case of applying sterilized water)≦(4M3H production amount in the case of applying a test substance)<(4M3H production amount in the case of applying sterilized water)) | D ((4M3H production amount in the case of applying sterilized water)≦(4M3H production amount in the case of applying a test substance)) | D ((4M3H production amount in the case of applying sterilized water)≦(4M3H production amount in the case of applying a test substance)) | 
Alkyl benzyl dimethyl ammonium chloride |  | D ((4M3H production amount in the case of applying sterilized water)≦(4M3H production amount in the case of applying a test substance)) | D ((4M3H production amount in the case of applying sterilized water)≦(4M3H production amount in the case of applying a test substance)) | C (( 1/10 of the 4M3H production amount in the case of applying sterilized water)≦(4M3H production amount in the case of applying a test substance)<(4M3H production amount in the case of applying sterilized water)) | D ((4M3H production amount in the case of applying sterilized water)≦(4M3H production amount in the case of applying a test substance)) | D ((4M3H production amount in the case of applying sterilized water)≦(4M3H production amount in the case of applying a test substance)) | C (( 1/10 of the 4M3H production amount in the case of applying sterilized water)≦(4M3H production amount in the case of applying a test substance)<(4M3H production amount in the case of applying sterilized water)) | D ((4M3H production amount in the case of applying sterilized water)≦(4M3H production amount in the case of applying a test substance)) | D ((4M3H production amount in the case of applying sterilized water)≦(4M3H production amount in the case of applying a test substance)) |  |  |  |  |  |  |  |  |  | D ((4M3H production amount in the case of applying sterilized water)≦(4M3H production amount in the case of applying a test substance))
